Results from patent US8293786B2 (Alltranz Inc., priority 2007, dated 2012).

System: human abdominal skin
Test: In vitro human skin permeation and skin disposition, flow-through diffusion cells (Example 1)
Type: in vitro ADME
Procedure: Flow through diffusion cells were used for the permeation studies. HEPES-buffered Hanks' balanced salts containing 40% (polyethylene glycol) PEG 400 with gentamicin was used for the receiver compartment. Donor solution was comprised of either 100% propylene glycol (PG) solution or a rubbed in gel formulation. […] Drug accumulation in the skin after a 24 or 36 h diffusion experiment was determined as μmol/g wet tissue weight.
The skin samples used in the following experiments were obtained from abdominal reduction surgery and dermatomed to a thickness of approximately 200 μm. The skin samples used herein were frozen at −20° C. for less than six months.
1 L of receiver fluid was prepared by measuring 1 L of nanopure water into a graduated cylinder. 90% of the water was added to an Erlenmeyer flask. Hanks' salts (1 bottle) were added to the water along with 5.96 g of HEPES and 0.35 g of sodium bicarbonate. The pH of the solution was adjusted with 1 N sodium hydroxide solution to pH 7.4. The remaining water was added and the receiver fluid was filtered through a 0.2μ filter (Millipore, Billerica, Mass.). 50 mg of gentamicin was added to the filtered receiver fluid and 400 mL of the receiver fluid was removed and replaced with 400 mL of PEG 400.
Two different formulations were used for charging the donor compartment. Drugs were made up in either 100% PG or a gel formulation. For the PG solution, approximately 50-120 mg of the appropriate drug was weighed into a glass silanized culture tube. The gel formulation resulted from the mixing of absolute ethanol, nanopure water, IPM, Carbopol® 980, 0.1 N aqueous sodium hydroxide solution and the respective drug.
Dermatomed skin harvested from abdominoplasty, stored at −20° C., was used for the experiments. A PermeGear flow-through (In-Line, Riegelsville, Pa.) diffusion cell system was used for the skin permeation studies.
Diffusion cells were kept at 32° C. with a circulating water bath. Human epidermal skin was arranged in the diffusion cell with stratum corneum (upper layer of skin) facing the donor compartment. Permeation area of the skin was 0.95 cm^2. Data was collected from a human skin donor with three to four diffusion cells per treatment.
Receiver solution was HEPES-buffered Hanks' balanced salts with gentamicin containing 40% PEG 400 at a pH of 7.4 and flow rate was adjusted to 0.8 mL/h. Each cell was charged with 0.050 mL of the respective drug formulation (donor solution) or with 0.035 mL of gel formulation which was rubbed into the skin for 15 sec with a Teflon coated rod. The formulation was applied to ensure complete coverage. Diffusion cells were covered with a cap for the duration of the study.
Samples were collected into scintillation vials in 3 h increments for either 24 h or 36 h. All the samples were stored at 4° C. until extracted. An aliquot (0.5 mL) of the diffusion sample was placed into a silanized HPLC vial and 0.5 mL of acetonitrile was added to the sample, capped and vortexed.
At the end of the experiment, the skin tissue was removed from the diffusion cell, rinsed with nanopure water, and blotted dry with a paper towel. The skin was tape stripped twice using book tape (Scotch™, 3M, St. Paul, Minn.) to remove drug formulation adhering to the tissue surface. The area of skin in contact with the drug was cut out, chopped up and placed in a pre-weighed scintillation vial. Ten mL of acetonitrile was added to the vial and drug was extracted from the skin by shaking at room temperature overnight. The following day a 0.1 mL aliquot was removed and diluted with an additional 0.9 mL of acetonitrile. The diluted sample was added to the silanized HPLC vial for analysis.
At the end of the experiment, a 0.01 mL aliquot of the PG donor solution was removed and added to a scintillation vial containing 10 mL of acetonitrile. The vials were vortexed and then sonicated for 15 min. An aliquot of 1 mL was removed and transferred into a silanized HPLC vial for analysis.

[1] = Table 3, in propylene glycol, prodrug applied
[2] = Table 11, in gel formulation, CBD from applied prodrug
[3] = Table 11, in gel formulation, as applied compound (CBD or intact prodrug)
[4] = Table 11, in gel formulation, prodrug applied, as total CBD equivalents (cannabidiol and/or prodrug)
[5] = Table 12, in gel formulation, CBD from applied prodrug
[6] = Table 12, in gel formulation, as applied compound (CBD or intact prodrug)
[7] = Table 12, in gel formulation, prodrug applied, as total CBD equivalents
[8] = Table 13, in propylene glycol, 36 h, CBD from applied prodrug
[9] = Table 13, in propylene glycol, 36 h, as applied compound (CBD or intact prodrug)
[10] = Table 13, in propylene glycol, 36 h, prodrug applied, as total CBD equivalents
[11] = Table 13, in propylene glycol, CBD from applied prodrug
[12] = Table 13, in propylene glycol, as applied compound (CBD or intact prodrug)
[13] = Table 13, in propylene glycol, prodrug applied, as total CBD equivalents
[14] = Table 3, in propylene glycol, CBD high conc.
[15] = Table 3, in propylene glycol, CBD low conc.
[16] = Table 4, in propylene glycol, CBD high conc.
[17] = Table 4, in propylene glycol, CBD low conc.
[18] = Table 5, in propylene glycol, CBD high conc.
[19] = Table 5, in propylene glycol, CBD low conc.
[20] = Table 14, in propylene glycol, as applied compound (CBD or intact prodrug)

For `C=C(C)[C@@H]1CCC(C)=C[C@H]1c1c(OC(=O)CCN(C)C)cc(CCCCC)cc1OC(=O)CCN(C)C` [ALL00101, CBD bis(3-(dimethylamino)propionate)], the “flux enhancement (in words)” value (Example 1) was “No flux enhancement”, the “form in which the prodrug permeated through the human skin” value (Example 1) was “permeated through the human skin as cannabidiol” and the “found in the skin disposition (tissue) samples” value (Example 1) was “Both cannabidiol and intact prodrug were found”. The “intact prodrug in the diffusion samples (receiver samples)” value (Example 1) was “No intact prodrug was found”, the “total cannabidiol in the skin compared to cannabidiol” value (Example 1) was “higher” and the “24 h cumulative amt” value [1] was 11.0 ± 0.1 nmol. For the same compound, the Flux [1] was 1.0 ± 0.4 nmol/cm^2/h, the Lag time [1] was 11.7 ± 5.1 h and the “24 h skin conc” value (Table 3, in propylene glycol, prodrug applied, found in skin as CBD) was 17.4 ± 4.3 (CBD) μmol/g. For the same compound, the “24 h skin conc” value (Table 3, in propylene glycol, prodrug applied, found in skin as PD (prodrug)) was 29.2 ± 7.6 (PD) μmol/g.

For `C=C(C)C1CCC(C)=CC1c1c(OC(=O)CN(C)C)cc(CCCCC)cc1OC(=O)CN(C)C` (stereo not drawn) [ALL00105, CBD bis(N,N-dimethylglycinate)], the “form in which the prodrug permeated through the human skin” value (Example 1) was “permeated primarily as intact prodrug”, the “24 h cumulative amt” value [2] was 4.1 ± 1.5 nmol and the “24 h skin conc” value [2] was 2.5 ± 2.1 µmol/g. For the same compound, the Flux [2] was 0.3 ± 0.02 nmol/cm^2/h, the Lag time [2] was 0.8 ± 0.4 h and the “24 h cumulative amt” value [3] was 66.8 ± 9.0 nmol. The “24 h skin conc” value [3] was 82.1 ± 58.9 µmol/g, the Flux [3] was 2.9 ± 0.5 nmol/cm^2/h and the Lag time [3] was 7.9 ± 3.3 h. The “24 h cumulative amt” value [4] was 76.5 ± 7.9 nmol, the “24 h skin conc” value [4] was 84.5 ± 60.7 µmol/g and the Flux [4] was 3.3 ± 0.7 nmol/cm^2/h. The Lag time [4] was 1.2 ± 0.1 h, the “24 h cumulative amt” value [5] was 1.1 ± 0.02 nmol and the “24 h skin conc” value [5] was 2.2 ± 2.1 µmol/g. The Flux [5] was 0.06 ± 0.02 nmol/cm^2/h, the Lag time [5] was 1.0 ± 0.6 h and the “24 h cumulative amt” value [6] was 7.3 ± 0.03 nmol. The “24 h skin conc” value [6] was 27.5 ± 7.4 µmol/g, the Flux [6] was 0.37 ± 0.01 nmol/cm^2/h and the Lag time [6] was 3.9 ± 4.8 h. For the same compound, the “24 h cumulative amt” value [7] was 8.9 ± 0.04 nmol, the “24 h skin conc” value [7] was 29.7 ± 9.1 µmol/g and the Flux [7] was 0.41 ± 0.03 nmol/cm^2/h. It also gave a Lag time [7] of 0.9 ± 1.2 h, a Flux [8] of 1.4 ± 0.2 nmol/cm^2/h and a Lag time [8] of 12.6 ± 1.3 h. It also gave a Flux [9] of 0.5 ± 0.01 nmol/cm^2/h, a Lag time [9] of 7.5 ± 0.0 h and a Flux [10] of 1.9 ± 0.2 nmol/cm^2/h. The Lag time [10] was 10.0 ± 2.9 h, the “36 h cumulative amt” value [11] was 32.6 ± 3.0 nmol and the “36 h skin conc.” value [11] was 2.8 ± 3.8 µmol/g. For the same compound, the “36 h cumulative amt” value [12] was 14.7 ± 3.2 nmol, the “36 h skin conc.” value [12] was 8.8 ± 0.0 µmol/g and the “36 h cumulative amt” value [13] was 47.2 ± 0.1 nmol. For the same compound, the “36 h skin conc.” value [13] was 7.2 ± 10.1 µmol/g, the “cumulative amount of total cannabidiol equivalents delivered, compared to cannabidiol” value (gel formulation) was 3.1-5.9 fold and the “decrease of lag time of total cannabidiol compared to the parent drug” value (gel formulation studies) was 7 to 8 h. The mean flux enhancement (mean between the two gel formulation experiments) was 2.5 and the “enhancement with the propylene glycol donor solution” value (propylene glycol donor solution) was “did not show any enhancement”.

In the case of `C=C(C)[C@@H]1CCC(C)=C[C@H]1c1c(O)cc(CCCCC)cc1O` [cannabidiol, reference compound], the “24 h cumulative amt” value (Table 2, in propylene glycol) is reported as 222.7 ± 74.0 nmol, the “24 h skin conc” value (Table 2, in propylene glycol) is reported as 190.8 ± 10.7 µmol/g and the Flux (Table 2, in propylene glycol) is reported as 10.4 ± 2.0 nmol/cm^2/h. The “24 h cumulative amt” value [14] was 89.2 ± 15.0 nmol, the “24 h skin conc” value [14] was 223.1 ± 75.3 µmol/g and the Flux [14] was 7.8 ± 1.1 nmol/cm^2/h. For the same compound, the “24 h cumulative amt” value [15] was 50.1 ± 28.1 nmol, the “24 h skin conc” value [15] was 26.3 ± 14.1 µmol/g and the Flux [15] was 4.5 ± 2.5 nmol/cm^2/h. The “24 h cumulative amt” value [16] was 110.4 ± 18.9 nmol, the “24 h skin conc” value [16] was 167.6 ± 76.7 µmol/g and the Flux [16] was 8.5 ± 2.4 nmol/cm^2/h. For the same compound, the “24 h cumulative amt” value [17] was 63.5 ± 47.5 nmol, the “24 h skin conc” value [17] was 112.5 ± 61.8 µmol/g and the Flux [17] was 6.0 ± 3.3 nmol/cm^2/h. The “24 h cumulative amt” value [18] was 42.4 ± 10.7 nmol, the “24 h skin conc” value [18] was 104.9 ± 51.0 µmol/g and the Flux [18] was 3.9 ± 0.0 nmol/cm^2/h. For the same compound, the “24 h cumulative amt” value [19] was 56.9 ± 39.4 nmol, the “24 h skin conc” value [19] was 75.3 ± 33.1 µmol/g and the Flux [19] was 5.7 ± 3.5 nmol/cm^2/h. For the same compound, the “24 h cumulative amt” value (Table 6, in propylene glycol) was 27.5 ± 32.5 nmol, the “24 h skin conc” value (Table 6, in propylene glycol) was 49.2 ± 15.2 µmol/g and the Flux (Table 6, in propylene glycol) was 4.3 ± 2.4 nmol/cm^2/h. The “36 h cumulative amt” value (Table 7, in propylene glycol) was 15.7 ± 5.4 nmol, the “36 h skin conc.” value (Table 7, in propylene glycol) was 44.1 ± 15.5 µmol/g and the Flux (Table 7, in propylene glycol, 36 h experiment) was 1.0 ± 0.7 nmol/cm^2/h. The “36 h cumulative amt” value (Table 8, in gel formulation) was 52.0 ± 42.7 nmol, the “36 h skin conc.” value (Table 8, in gel formulation) was 28.4 ± 8.8 µmol/g and the Flux (Table 8, in gel formulation, 36 h experiment) was 2.0 ± 2.3 nmol/cm^2/h. The “24 h cumulative amt” value (Table 9, in gel formulation) was 1.9 ± 1.3 nmol, the Flux (Table 9, in gel formulation) was 0.10 ± 0.06 nmol/cm^2/h and the “24 h skin conc” value (Table 9, in gel formulation, as applied compound (CBD, or PD = intact prodrug)) was 24.6 ± 3.6 µmol/g. The “24 h cumulative amt” value (Table 10, in propylene glycol) was 164.5 ± 34.1 nmol, the Flux (Table 10, in propylene glycol) was 8.0 ± 0.9 nmol/cm^2/h and the “24 h skin conc” value (Table 10, in propylene glycol, as applied compound (CBD, or PD = intact prodrug)) was 85.8 ± 24.3 µmol/g. The “24 h cumulative amt” value [3] was 13.3 ± 2.6 nmol, the “24 h skin conc” value [3] was 29.0 ± 10.2 µmol/g and the Flux [3] was 1.0 ± 0.1 nmol/cm^2/h. The “24 h cumulative amt” value [6] was 2.9 ± 0.1 nmol, the “24 h skin conc” value [6] was 88.4 ± 36.3 µmol/g and the Flux [6] was 0.24 ± 0.003 nmol/cm^2/h. For the same compound, the Flux [9] was 4.2 ± 0.0 nmol/cm^2/h, the “36 h cumulative amt” value [12] was 94.5 ± 0.0 nmol and the “36 h skin conc.” value [12] was 39.4 ± 0.0 µmol/g. The Flux (Table 14, in propylene glycol, 36 h, as applied compound (CBD or intact prodrug)) was 8.4 ± 2.4 nmol/cm^2/h, the “36 h cumulative amt” value [20] was 93.6 ± 38.0 nmol and the “36 h skin conc.” value [20] was 92.9 ± 4.8 µmol/g.
